According to patent US20240081326A1, “Use of a Biobased Composition Comprising Ferulated Chitosan as a Pesticide Safener” (FYTEKO SA, priority 2020, published 2024):

System: Lemna minor
Assay: Lemna minor in vitro relative growth rate and survival with herbicide Profoxydim
Format: in vivo
Settings: one week; for relative growth rate (RGR) of Lemna minor plants, substance alone: 10 mg/L in Hoagland medium
Protocol: The experiment was carried out in Lemna minor growing under in vitro conditions. A stock culture of Lemna minor was maintained on modified Hoagland medium in a controlled environment. […] An experiment was conducted, using fronds free from any visible chlorosis which were taken from the stock cultures and exposed to diverse treatments. For each treatment, six repetitions with three fronds per repetition as the initial frond number were used. […] The multiplate was covered with a transparent cover to prevent evaporation. The relative growth was calculated after one week of incubation in the described conditions, and the survival rate was evaluated.

Compound	relative growth rate (RGR) of Lemna minor plants, substance alone	protective effect on relative growth rate in combination with the herbicide Profoxydim (10 mg/L with 10 mg/L Profoxydim)
CCCC(=NOCC(C)Oc1ccc(Cl)cc1)C1=C(O)CC(C2CCCSC2)CC1=O (stereo not drawn) [Profoxydim]	drastically reduced the RGR	
COc1cc(/C=C/C(=O)O)ccc1O [ferulic acid]	hindering Lemna minor growth	Neither chitosan nor ferulic acid in combination with the herbicide showed this protective effect
